Reference: ChEMBL document CHEMBL1201862, “PubChem BioAssay data set” (2004)
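Five compound concentrations were applied to cells in 96-well plates for 48 hours; endpoints were derived by simple linear interpolation of the resulting dose-response curve. GI50 marks 50% less growth.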 Activity calls are given as the source filed them. Cut-off read from the data, not from the text of the source: active = GI50 up to about 1.1 µM and inactive = higher.

How the values were obtained:
Assay in all cases: NCI tumour cell line growth inhibition, 48 h
OVCAR-4 = system: OVCAR-4
HL-60 = system: HL-60
UO-31 = system: UO-31
ACHN = system: ACHN
K562 = system: K562
SF-539 = system: SF-539
SNB-75 = system: SNB-75
SF-295 = system: SF-295
MOLT-4 = system: MOLT-4
SK-MEL-5 = system: SK-MEL-5
SN12C = system: SN12C
HCT-116 = system: HCT-116
SK-MEL-2 = system: SK-MEL-2
HOP-92 = system: HOP-92
NCI-H226 = system: NCI-H226
CAKI-1 = system: CAKI-1
RXF 393 = system: RXF 393
SK-MEL-28 = system: SK-MEL-28
HCC 2998 = system: HCC 2998

Compound | GI50 (OVCAR-4) | GI50 (HL-60) | GI50 (UO-31) | GI50 (ACHN) | GI50 (K562) | GI50 (SF-539) | GI50 (SNB-75) | GI50 (SF-295) | GI50 (MOLT-4) | GI50 (SK-MEL-5) | GI50 (SN12C) | GI50 (HCT-116) | GI50 (SK-MEL-2) | GI50 (HOP-92) | GI50 (NCI-H226) | GI50 (CAKI-1) | GI50 (RXF 393) | GI50 (SK-MEL-28) | GI50 (HCC 2998)
COc1ccc(C(c2ccc(C(C)C)cc(=O)c2O)c2ccc3cccnc3c2O)cc1 (stereo unspecified) | 2.88 µM (inactive) | 0.863 µM (active) | 0.421 µM (active) | 0.274 µM (active) | 0.399 µM (active) | 0.357 µM (active) | 0.155 µM (active) | 0.337 µM (active) | 0.558 µM (active) | 0.507 µM (active) | 0.415 µM (active) | 0.318 µM (active) | 2.02 µM (inactive) | 0.235 µM (active) | 0.991 µM (active) | 1.79 µM (inactive) | – | – | –
CCOP(=O)(OCC)C(Nc1ccc(C(=O)O)cc1)c1ccc(C(Nc2ccc(C(=O)O)cc2)P(=O)(OCC)OCC)cc1 (stereo unspecified) | > 100 µM (inactive) | – | > 100 µM (inactive) | > 100 µM (inactive) | > 100 µM (inactive) | – | > 100 µM (inactive) | > 100 µM (inactive) | > 100 µM (inactive) | > 100 µM (inactive) | – | > 100 µM (inactive) | > 100 µM (inactive) | > 100 µM (inactive) | > 100 µM (inactive) | > 100 µM (inactive) | > 100 µM (inactive) | > 100 µM (inactive) | > 100 µM (inactive)
COC(=O)C1Cc2c([nH]c3ccccc23)C=N1 (stereo unspecified) | > 100 µM (inactive) | > 100 µM (inactive) | > 100 µM (inactive) | > 100 µM (inactive) | > 100 µM (inactive) | > 100 µM (inactive) | 60.8 µM (inactive) | > 100 µM (inactive) | > 100 µM (inactive) | > 100 µM (inactive) | > 100 µM (inactive) | > 100 µM (inactive) | – | > 100 µM (inactive) | > 100 µM (inactive) | > 100 µM (inactive) | > 100 µM (inactive) | > 100 µM (inactive) | > 100 µM (inactive)
CCCNC(C#N)c1ccc(C(C#N)NCCC)cc1 (stereo unspecified) | > 100 µM (inactive) | 40.8 µM (inactive) | > 100 µM (inactive) | > 100 µM (inactive) | 37.8 µM (inactive) | > 100 µM (inactive) | – | > 100 µM (inactive) | 37.3 µM (inactive) | > 100 µM (inactive) | > 100 µM (inactive) | 40.3 µM (inactive) | > 100 µM (inactive) | 45.4 µM (inactive) | > 100 µM (inactive) | > 100 µM (inactive) | > 100 µM (inactive) | > 100 µM (inactive) | > 100 µM (inactive)
Cc1cc(N(CCC#N)CCC#N)ccc1/C=C(\NC(=O)/C=C/c1ccccc1)C(=O)Nc1ccccc1Cl | > 100 µM (inactive) | > 100 µM (inactive) | > 100 µM (inactive) | > 100 µM (inactive) | > 100 µM (inactive) | > 100 µM (inactive) | – | 92 µM (inactive) | > 100 µM (inactive) | > 100 µM (inactive) | > 100 µM (inactive) | > 100 µM (inactive) | > 100 µM (inactive) | 29.2 µM (inactive) | > 100 µM (inactive) | 78.7 µM (inactive) | > 100 µM (inactive) | > 100 µM (inactive) | > 100 µM (inactive)
CN1C2CCC1/C(=C/c1cccc3c1OCO3)C(=O)/C2=C\c1cccc2c1OCO2 | – | > 100 µM (inactive) | > 100 µM (inactive) | > 100 µM (inactive) | > 10 µM (inactive) | – | 11.1 µM (inactive) | 22.1 µM (inactive) | > 100 µM (inactive) | 37.9 µM (inactive) | > 100 µM (inactive) | > 100 µM (inactive) | > 100 µM (inactive) | 22.8 µM (inactive) | > 100 µM (inactive) | – | 11.3 µM (inactive) | > 100 µM (inactive) | > 100 µM (inactive)
CC(=O)Nc1ccc(C(=O)NN2C(=O)C(Cl)C2c2cccc([N+](=O)[O-])c2)cc1 (stereo unspecified) | – | > 100 µM (inactive) | > 100 µM (inactive) | > 100 µM (inactive) | > 100 µM (inactive) | > 100 µM (inactive) | > 100 µM (inactive) | > 100 µM (inactive) | > 100 µM (inactive) | > 100 µM (inactive) | – | > 100 µM (inactive) | > 100 µM (inactive) | > 100 µM (inactive) | > 100 µM (inactive) | – | – | > 100 µM (inactive) | > 100 µM (inactive)
O=C1C(=C2CCCC2)CCC1CN1CCCCC1 (stereo unspecified) | 16.5 µM (inactive) | 4.63 µM (inactive) | > 100 µM (inactive) | – | 16.3 µM (inactive) | 21 µM (inactive) | 0.489 µM (active) | > 100 µM (inactive) | 18.5 µM (inactive) | 18.2 µM (inactive) | 16.8 µM (inactive) | 18.6 µM (inactive) | 16.5 µM (inactive) | 19.5 µM (inactive) | – | – | 16.4 µM (inactive) | 17.5 µM (inactive) | 16.3 µM (inactive)
OCCN1CCN(CCO)Cc2ccccc2OCCOc2ccccc2C1 | > 100 µM (inactive) | – | > 100 µM (inactive) | > 100 µM (inactive) | > 100 µM (inactive) | > 100 µM (inactive) | 33 µM (inactive) | – | > 100 µM (inactive) | > 100 µM (inactive) | > 100 µM (inactive) | 51.6 µM (inactive) | > 100 µM (inactive) | > 100 µM (inactive) | > 100 µM (inactive) | > 100 µM (inactive) | > 100 µM (inactive) | > 100 µM (inactive) | –
N#CC1C(=O)C(=O)N(c2ccccc2)C1=O (stereo unspecified) | > 100 µM (inactive) | – | > 100 µM (inactive) | > 100 µM (inactive) | > 100 µM (inactive) | > 100 µM (inactive) | 81.3 µM (inactive) | > 100 µM (inactive) | – | > 100 µM (inactive) | > 100 µM (inactive) | > 100 µM (inactive) | > 100 µM (inactive) | > 100 µM (inactive) | > 100 µM (inactive) | > 100 µM (inactive) | > 100 µM (inactive) | > 100 µM (inactive) | > 100 µM (inactive)
COc1ccc(C(=O)C(C(=O)C(=O)NC2C3CC4CC(C3)CC2C4)c2ccc(OC)cc2)cc1 (stereo unspecified) | > 100 µM (inactive) | > 100 µM (inactive) | > 100 µM (inactive) | > 100 µM (inactive) | > 100 µM (inactive) | > 100 µM (inactive) | 16.6 µM (inactive) | > 100 µM (inactive) | > 100 µM (inactive) | > 100 µM (inactive) | > 100 µM (inactive) | > 100 µM (inactive) | > 100 µM (inactive) | > 100 µM (inactive) | > 100 µM (inactive) | > 100 µM (inactive) | – | > 100 µM (inactive) | > 100 µM (inactive)
CC12CC3CC(C1)CC(N=[N+]=[N-])(C3)C2 | > 100 µM (inactive) | – | > 100 µM (inactive) | > 100 µM (inactive) | > 100 µM (inactive) | > 100 µM (inactive) | > 100 µM (inactive) | > 100 µM (inactive) | > 100 µM (inactive) | > 100 µM (inactive) | > 100 µM (inactive) | > 100 µM (inactive) | > 100 µM (inactive) | > 100 µM (inactive) | > 100 µM (inactive) | > 100 µM (inactive) | – | > 100 µM (inactive) | > 100 µM (inactive)
CN1Cc2cc3c(cc2-c2ccccc21)OCO3 | > 100 µM (inactive) | > 100 µM (inactive) | > 100 µM (inactive) | > 100 µM (inactive) | > 100 µM (inactive) | > 100 µM (inactive) | > 100 µM (inactive) | > 100 µM (inactive) | > 100 µM (inactive) | > 100 µM (inactive) | > 100 µM (inactive) | > 100 µM (inactive) | > 100 µM (inactive) | > 100 µM (inactive) | – | – | > 100 µM (inactive) | > 100 µM (inactive) | > 100 µM (inactive)
C/C=C(\C)C(=O)OC1C2C(C)=CC(=O)C(O)C2(C)C2C3(O)OCC24C1OC(=O)C(OC(C)=O)C4C(C)C3O (stereo unspecified) | 0.11 µM (active) | 0.0375 µM (active) | 0.195 µM (active) | – | 0.0375 µM (active) | – | 0.0389 µM (active) | 0.0402 µM (active) | 0.0375 µM (active) | – | 0.0741 µM (active) | 0.0375 µM (active) | 0.0377 µM (active) | 0.0388 µM (active) | 0.0375 µM (active) | 0.197 µM (active) | 0.0375 µM (active) | 0.0375 µM (active) | 0.0415 µM (active)
C=CC1(C)CCC2=C(CCC3C(C)(C(=O)OC)CCCC23C)C1=O (stereo unspecified) | 14.7 µM (inactive) | 28.7 µM (inactive) | 20.8 µM (inactive) | 17.7 µM (inactive) | 38.8 µM (inactive) | – | – | 27 µM (inactive) | – | 16.7 µM (inactive) | 19 µM (inactive) | 17.3 µM (inactive) | 17.9 µM (inactive) | – | 23.8 µM (inactive) | 30.3 µM (inactive) | – | – | –
CCOC(=O)CSC(=O)NCCCl | > 100 µM (inactive) | – | > 100 µM (inactive) | > 100 µM (inactive) | – | > 100 µM (inactive) | > 100 µM (inactive) | > 100 µM (inactive) | – | – | > 100 µM (inactive) | > 100 µM (inactive) | > 100 µM (inactive) | > 100 µM (inactive) | > 100 µM (inactive) | > 100 µM (inactive) | > 100 µM (inactive) | > 100 µM (inactive) | > 100 µM (inactive)
COc1ccc(N(CC(=O)O)S(=O)(=O)c2ccccc2)cc1 | > 100 µM (inactive) | > 100 µM (inactive) | > 100 µM (inactive) | > 100 µM (inactive) | > 100 µM (inactive) | > 100 µM (inactive) | – | > 100 µM (inactive) | > 100 µM (inactive) | > 100 µM (inactive) | > 100 µM (inactive) | – | > 100 µM (inactive) | > 100 µM (inactive) | > 100 µM (inactive) | > 100 µM (inactive) | > 100 µM (inactive) | – | –
